Non-standard residues stand in square brackets, D forms with d. Residues, ends and D or L forms follow the SMILES beside them.
Assays:
Assay type in all cases: biochemical
[1] = molecular target: T1, PC2 (Mus musculus, UniProt P21661); assay: PC2 enzyme assay, hydrolysis of pERTKR-MCA at pH 5.0; parameters: made in house
T1 sequence (P21661 109-637): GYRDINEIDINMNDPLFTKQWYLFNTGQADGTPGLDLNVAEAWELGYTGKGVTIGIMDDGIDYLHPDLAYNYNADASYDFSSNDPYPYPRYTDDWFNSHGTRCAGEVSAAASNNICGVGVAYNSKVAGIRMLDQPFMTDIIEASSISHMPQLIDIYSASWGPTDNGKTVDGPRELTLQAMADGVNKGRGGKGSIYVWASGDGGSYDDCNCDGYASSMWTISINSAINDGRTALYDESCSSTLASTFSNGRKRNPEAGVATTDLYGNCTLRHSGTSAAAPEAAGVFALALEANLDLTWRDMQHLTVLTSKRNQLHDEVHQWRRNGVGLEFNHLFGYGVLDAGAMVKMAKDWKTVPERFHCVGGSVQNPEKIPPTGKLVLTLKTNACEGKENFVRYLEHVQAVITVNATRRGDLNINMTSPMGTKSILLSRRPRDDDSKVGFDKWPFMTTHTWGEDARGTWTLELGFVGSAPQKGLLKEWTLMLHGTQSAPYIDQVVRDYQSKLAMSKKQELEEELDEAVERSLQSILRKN
Procedure: (§1) The proprotein convertases PC1 and PC2 were prepared by ion exchange chromatography as described in G. Frenette et al., Biochim. Biophys. Acta., vol. 1334, pp. 109-115 (1997).
(§2) Enzyme Assays and Hexapeptide Library Screening. Enzyme assays for PC1 and PC2 were performed at pH 5.0 using pERTKR-MCA (Peptides International Inc., Louisville, Ky.) as described in E. Apletalina et al., J. Biol. Chem., vol. 273, pp. 26589-26595 (1998). The assay for furin was performed using the same substrate at pH 7.0 in 100 mM HEPES, 5 mM CaCl2, 0.1% Brij 35. All assays were performed at 37° C. in a 96 well fluorometer (Labsystems) at an excitation wavelength of 380 nm with emission monitored at a wavelength of 460 nm. The total volume was 50 μL. Unless otherwise stated, the final substrate concentration for all assays was 200 μM. When used in a particular experiment, the inhibitory peptides were pre-incubated with enzyme for 30 min at room temperature prior to addition of substrate. All assays were performed in duplicate or triplicate.

[2] = molecular target: T2, recombinant mouse furin (Mus musculus, UniProt P23188); assay: Furin enzyme assay, hydrolysis of pERTKR-MCA at pH 7.0; settings: for type of inhibition of furin (Lineweaver-Burk plots): furin 30 nM, 0, 20 or 40 μM hexapeptide, polyarginines forty-fold lower
T2 construct: truncated N-terminally to the transmembrane domain at His^711 using PCR; myc (C, cleaved yes); hexa-His (C, cleaved yes); made in house; host or cells: DG44 CHO cells, conditioned medium
Excerpt: Recombinant convertase preparation. The mouse furin clone was a kind gift from K. Nakayama (Fukuoka University School of Medicine, Fukuoka, Japan). The mouse furin cDNA was truncated N-terminally to the transmembrane domain at His^711 using PCR. This PCR product was then subcloned into pcDNA3.1 (−) myc-His (Invitrogen) at the Nhe1 and Xba1 restriction sites. Dihydrofolate-reductase-negative DG44 Chinese Hamster Ovary (CHO) cells (L. Chasin, Columbia University, New York, N.Y.) were transfected using Lipofectin (Life Technologies), and colonies were selected at 37° C. in 5% CO2 in α-MEM (lacking nucleosides) containing 10% well-dialyzed fetal bovine serum (Life Technologies). Conditioned media from colonies were screened using an enzyme assay (see below), and a high-expressing clone was selected. Overexpression of furin was achieved by increasing the methotrexate concentration from 5 nM to 50 μM in five- to ten-fold steps as described in I. Lindberg et al., Methods Neurosci., vol. 23, pp. 94-108 (1995). The amplified lines were tested for increased furin expression by enzyme assay. Once the 50 μM methotrexate level had been reached, cells were split at ratios of 1:6 twice a week. 100 mL of conditioned media (OptiMEM, Life Technologies) containing 100 μg/mL aprotinin (Miles Laboratories, Kankakee, Ill.) was collected from confluent roller bottles every 24 h. The medium was then centrifuged at low speed to remove cells, and the supernatant was stored at −80° C. until use.
Purification of furin: Conditioned medium was thawed, pooled, and diluted 1:3.5 with buffer A (20 mM HEPES, 0.1% Brij 35, 5 mM CaCl2, pH 7.4), and pumped at 40 mL/min through a Sartorius D100 anion exchange membrane. The membrane was washed with 40 mL of buffer A, followed by 40 mL of buffer A containing 50 mM NaCl, and finally by 40 mL of buffer A containing 200 mM NaCl. The fraction eluting with 200 mM NaCl was diluted 1:4 with buffer A and applied to a 1 mL Pharmacia Mono Q HR5/5 anion exchange column at a flow rate of 1 mL/min. Following a 10 mL wash with buffer A, furin was eluted by a linear increase of 0 to 500 mM NaCl in buffer A over 30 mL; and 2 mL fractions were collected. Fractions containing peak activity were pooled, and 200 μL aliquots were subjected to gel permeation chromatography using a Pharmacia Superose 12 column at a flow rate of 0.5 mL/min of buffer A containing 200 mM NaCl. Fractions were assayed for activity as described below; protein content was determined using the Bradford method. All purification steps were performed at 4° C.
as §2

[3] = molecular target: T3, PACE4 (Rattus norvegicus, UniProt Q63415); assay: PACE4 enzyme assay, hydrolysis of pERTKR-MCA
T3 construct: made in house; host or cells: stably transfected hEK-293 cells (gift of R. E. Mains), conditioned medium
T3 sequence (Q63415 133-937): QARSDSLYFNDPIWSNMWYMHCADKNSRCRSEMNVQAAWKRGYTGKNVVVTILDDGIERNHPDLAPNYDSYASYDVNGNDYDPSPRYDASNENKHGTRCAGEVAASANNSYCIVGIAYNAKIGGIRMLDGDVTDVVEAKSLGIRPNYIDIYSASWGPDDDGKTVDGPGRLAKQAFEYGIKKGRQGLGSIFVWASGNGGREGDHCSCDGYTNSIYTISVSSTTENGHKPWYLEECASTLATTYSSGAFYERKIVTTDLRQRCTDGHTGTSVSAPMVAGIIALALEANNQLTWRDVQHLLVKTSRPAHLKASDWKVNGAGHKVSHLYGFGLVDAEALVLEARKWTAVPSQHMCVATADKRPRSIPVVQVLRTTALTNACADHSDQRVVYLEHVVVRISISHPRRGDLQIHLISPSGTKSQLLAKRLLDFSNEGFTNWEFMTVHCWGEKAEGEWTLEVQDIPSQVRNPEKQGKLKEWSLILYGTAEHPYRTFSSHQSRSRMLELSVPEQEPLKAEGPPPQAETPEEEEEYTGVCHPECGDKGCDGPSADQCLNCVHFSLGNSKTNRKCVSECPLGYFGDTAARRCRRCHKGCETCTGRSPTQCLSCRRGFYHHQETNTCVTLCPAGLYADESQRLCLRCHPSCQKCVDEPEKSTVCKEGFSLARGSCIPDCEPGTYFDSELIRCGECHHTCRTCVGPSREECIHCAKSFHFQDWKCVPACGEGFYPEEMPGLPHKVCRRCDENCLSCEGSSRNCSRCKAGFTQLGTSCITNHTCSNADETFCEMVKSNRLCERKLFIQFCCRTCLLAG
Procedure: The proprotein convertase PACE4 was partially purified from an overnight-conditioned medium of stably transfected hEK-293 human embryonic kidney cells (a generous gift of R. E. Mains, Johns Hopkins University School of Medicine, Baltimore, Md.). Briefly, 100 mL of conditioned medium (OptiMEM containing 100 μg/mL aprotinin) was loaded onto an Econo-Pac Q (Bio-Rad) column at 4 mL/min, washed with 10 mL of buffer A, and then eluted with a linear gradient of buffer A containing 500 mM NaCl over 50 mL. The active fractions were then diluted 1:4 with buffer A prior to loading onto a Mono Q column (Pharmacia) at 1 mL/min. The PACE4 was eluted with a linear gradient of buffer A containing 500 mM NaCl over 10 mL. The resulting active fractions were then pooled and stored at −80° C. until use.
as §2

[4] = molecular target: T4, PC1 (Mus musculus, UniProt P63239); assay: biochemical
T4 construct: made in house
T4 sequence (P63239 111-753): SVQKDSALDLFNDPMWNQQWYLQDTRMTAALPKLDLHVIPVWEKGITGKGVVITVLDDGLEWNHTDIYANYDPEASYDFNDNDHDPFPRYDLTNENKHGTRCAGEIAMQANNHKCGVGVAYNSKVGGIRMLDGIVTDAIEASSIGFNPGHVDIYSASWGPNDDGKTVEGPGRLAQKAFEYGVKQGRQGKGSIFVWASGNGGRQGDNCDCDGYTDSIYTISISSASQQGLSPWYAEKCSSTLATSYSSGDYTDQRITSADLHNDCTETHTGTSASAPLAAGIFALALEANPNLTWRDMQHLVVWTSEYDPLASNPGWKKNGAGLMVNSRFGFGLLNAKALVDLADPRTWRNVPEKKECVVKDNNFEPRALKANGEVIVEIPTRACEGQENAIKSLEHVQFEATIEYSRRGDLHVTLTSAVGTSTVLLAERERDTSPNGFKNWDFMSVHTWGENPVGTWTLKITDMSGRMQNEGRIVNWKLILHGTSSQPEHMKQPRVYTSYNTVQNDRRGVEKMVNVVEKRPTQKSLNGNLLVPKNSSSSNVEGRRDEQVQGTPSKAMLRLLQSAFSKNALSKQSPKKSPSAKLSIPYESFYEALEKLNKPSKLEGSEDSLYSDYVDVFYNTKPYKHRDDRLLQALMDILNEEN
Procedure: as §1, §2

T2 sequence (P23188 108-714 limits assumed): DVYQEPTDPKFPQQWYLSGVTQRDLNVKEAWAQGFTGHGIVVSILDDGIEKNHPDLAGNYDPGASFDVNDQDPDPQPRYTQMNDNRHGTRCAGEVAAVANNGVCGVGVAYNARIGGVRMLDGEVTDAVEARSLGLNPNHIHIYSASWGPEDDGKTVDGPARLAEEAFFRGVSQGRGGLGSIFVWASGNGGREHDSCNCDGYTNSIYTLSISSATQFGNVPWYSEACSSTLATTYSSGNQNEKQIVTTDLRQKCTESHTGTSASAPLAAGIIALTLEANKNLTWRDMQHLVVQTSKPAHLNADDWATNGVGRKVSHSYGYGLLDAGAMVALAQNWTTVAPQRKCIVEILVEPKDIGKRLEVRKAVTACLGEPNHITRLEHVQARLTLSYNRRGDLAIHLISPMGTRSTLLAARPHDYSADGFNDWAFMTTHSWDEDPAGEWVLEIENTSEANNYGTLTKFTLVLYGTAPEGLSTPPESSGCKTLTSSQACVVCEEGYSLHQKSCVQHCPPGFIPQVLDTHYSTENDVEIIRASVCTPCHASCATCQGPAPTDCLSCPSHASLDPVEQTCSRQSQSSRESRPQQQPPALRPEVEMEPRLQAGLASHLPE

Compound | Ki [1] | other results
CC(=O)N[C@@H](CC(C)C)C(=O)N[C@@H](CC(C)C)C(=O)N[C@@H](CCCN=C(N)N)C(=O)N[C@H](C(=O)N[C@@H](CCCCN)C(=O)N[C@@H](CCCN=C(N)N)C(=O)O)C(C)C [Ac-LLRVKR] | 1.3 ± 0.6 µM | 
CC[C@@H](C)[C@@H](NC(=O)[C@@H](CCCNC(=N)N)NC(=O)[C@@H](CCCNC(=N)N)NC(=O)[C@@H](CCCNC(=N)N)NC(=O)[C@@H](Cc1c[nH]c2ccccc12)NC(C)=O)C(=O)N[C@H](CC(C)C)C(N)=O [Ac-wrrril-NH2] (Ac-[dW][dR][dR][dR][dI][dL]-NH2) | 601 ± 200 µM | Ki [2]: 22.7 ± 4.3 µM
CC[C@@H](C)[C@@H](NC(=O)[C@@H](CCCNC(=N)N)NC(=O)[C@@H](CCCNC(=N)N)NC(=O)[C@@H](CCCNC(=N)N)NC(=O)[C@@H](Cc1c[nH]c2ccccc12)NC(C)=O)C(=O)N[C@H](CCCNC(=N)N)C(N)=O [Ac-wrrrir-NH2] (Ac-[dW][dR][dR][dR][dI][dR]-NH2) | 399 ± 75 µM | Ki [2]: 7 ± 0.9 µM
CC(=O)N[C@H](Cc1c[nH]c2ccccc12)C(=O)N[C@H](CCCNC(=N)N)C(=O)N[C@H](CCCNC(=N)N)C(=O)N[C@H](CCCNC(=N)N)C(=O)N[C@H](CCCNC(=N)N)C(=O)N[C@H](CC(C)C)C(N)=O [Ac-wrrrrl-NH2] (Ac-[dW][dR][dR][dR][dR][dL]-NH2) | 203 ± 20 µM | Ki [2]: 5.3 ± 1 µM
CC(=O)N[C@H](Cc1c[nH]c2ccccc12)C(=O)N[C@H](CCCNC(=N)N)C(=O)N[C@H](CCCNC(=N)N)C(=O)N[C@H](CCCNC(=N)N)C(=O)N[C@H](CCCNC(=N)N)C(=O)N[C@H](CCCNC(=N)N)C(N)=O [Ac-wrrrrr-NH2] (Ac-[dW][dR][dR][dR][dR][dR]-NH2) | 334 ± 37 µM | Ki [2]: 2.4 ± 0.8 µM; type of inhibition of furin (Lineweaver-Burk plots) [2]: strictly competitive-type inhibition
N=C(N)NCCC[C@H](NC(=O)[C@H](CCCNC(=N)N)NC(=O)[C@H](CCCNC(=N)N)NC(=O)[C@H](CCCNC(=N)N)NC(=O)[C@H](CCCNC(=N)N)NC(=O)[C@H](CCCNC(=N)N)NC(=O)[C@@H](N)CCCNC(=N)N)C(=O)O [Hepta-L-arginine] |  | Ki [3]: 0.24 ± 0.045 µM; Ki [4]: 5.2 ± 1.2 µM
CC(C)C[C@H](NC(=O)[C@@H](N)CC(C)C)C(=O)N[C@@H](CCCNC(=N)N)C(=O)N[C@H](C(=O)N[C@@H](CCCCN)C(=O)N[C@@H](CCCNC(=N)N)C(N)=O)C(C)C [LLRVKR-NH2] | 2.3 ± 0.2 µM | 
CC(C)C[C@H](NC(=O)[C@@H](N)CC(C)C)C(=O)N[C@@H](CCCNC(=N)N)C(=O)N[C@H](C(=O)N[C@@H](CCCCN)C(=O)N[C@@H](CCCNC(=N)N)C(=O)O)C(C)C [LLRVKR] | 3.7 ± 0.17 µM | increase of inhibitory potency against furin on removing the terminal amide and acetyl groups ([2]; LLRVKR compared with acetylated and amidated form): eight-fold
N=C(N)NCCC[C@H](NC(=O)[C@H](CCCNC(=N)N)NC(=O)[C@H](CCCNC(=N)N)NC(=O)[C@H](CCCNC(=N)N)NC(=O)[C@H](CCCNC(=N)N)NC(=O)[C@H](CCCNC(=N)N)NC(=O)[C@H](CCCNC(=N)N)NC(=O)[C@@H](N)CCCNC(=N)N)C(=O)O [Octa-L-arginine] |  | Ki [3]: 0.15 ± 0.06 µM; Ki [4]: 5.1 ± 2 µM
Ac-HHKRRR-NH2 [Ac-HHKRRR-NH2] | 235 ± 16 µM | 
Ac-HRKRRR-NH2 [Ac-HRKRRR-NH2] | 309 ± 29 µM | 
Ac-KHKRRR-NH2 [Ac-KHKRRR-NH2] | 280 ± 29 µM | 
Ac-KRKRRR-NH2 [Ac-KRKRRR-NH2] | 391 ± 60 µM | 
Ac-MHKRRR-NH2 [Ac-MHKRRR-NH2] | 216 ± 13 µM | 
Ac-MRKRRR-NH2 [Ac-MRKRRR-NH2] | 1500 µM | 
Ac-RHKRRR-NH2 [Ac-RHKRRR-NH2] | 152 ± 30 µM | Ki [2]: 3.4 ± 0.6 µM
Ac-RRKRRR-NH2 [Ac-RRKRRR-NH2] | 461 ± 75 µM | type of inhibition of furin (Lineweaver-Burk plots) [2]: strictly competitive-type inhibition

Source: US7569547B2, “Inhibiting furin with polybasic peptides” (Board of Supervisors of Louisiana State University and …, priority 2001, dated 2009)
